Columns and labels:
[1] = Metabolic stability in human liver microsomes (LC-MS/MS); format: in vitro ADME
Description: An approach to address this issue of bioavailability is to improve metabolic stability. The para-position of the phenyl ring in acetanilide moieties is susceptible to oxidation. […] To test this, we altered the substitution pattern on the phenyl ring by moving the F atom from the ortho in 84 to the para position (Figure 1A). The regioisomer 51-106, resulting from the above change, was synthesized by coupling 3-(1-methyl-1H-pyrazol-4-yl)quinoxalin-6-amine (1) with freshly prepared 1-fluoro-4-isocyanato-2-(trifluoromethyl)benzene in dichloromethane (Scheme 1). To determine the metabolic stability of 51-106, we incubated 51-106 and analog 84 with human (pooled male and female) liver microsomes and monitored their stability using liquid chromatography–tandem mass spectrometry.
The in vitro metabolic stability of 51-106 was determined using human liver […] (XenoTech, LLC; Kansas City, KS, USA), following previously reported methods. […] Sample analysis was performed by liquid chromatography–tandem mass spectrometry (SCIEX QTRAP 4000 LC-MS/MS System, SCIEX, Framingham, MA, USA).

[2] = system: TNF-α–induced MAP3K1-IKKβ–mediated NF-κB transcription; assay: NF-κB luciferase reporter assay in HeLa cells; format: cell-based; settings: 20, 10, 5 μM, TNF-α 20 ng/mL, 6 h
Description: MAP3K1 was previously shown to phosphorylate IKKβ [12] and regulate NF-κB signaling. Therefore, we validated the ability of 51-106 to inhibit MAP3K1 by probing the phosphorylation status of the known substrate, IKKβ, using an AlphaLISA assay. The pancreatic cancer cells (MiaPaCa2) were subjected to a 30-min pretreatment with varying concentrations of 51-106, followed by TNFα stimulation to induce IKKβ phosphorylation. Following a 15-min stimulation, the levels of phospho-IKKβ and total IKKβ were quantified. […] (Figure 3A). Next, we evaluated the efficacy of 51-106 in a cell-based reporter assay utilizing a HeLa cell line that specifically responds to TNFα induced expression of a luciferase reporter gene that is under the control of an NF-κB response element.
A suspension of HeLa-NFkB-Luc cells (Cat# SL-0001; Signosis; Santa Clara, CA, USA) (2 × 10^4/well) in 80 μL media was plated in white-walled, flat, clear-bottomed, sterile, 96-well tissue culture plates (Cat# 3610; Corning). The cells were allowed to adhere overnight in a humidified 5% CO2 incubator at 37 °C. […] Post stimulation addition (6 h), fluorescence (Ex 560, Em 590) was measured on the plate reader to assess cell viability. […] Luminescence (1000 ms) was measured on the plate reader set to the kinetic mode of acquisition for 15 min. The luminescence data were normalized to the AlamarBlue values. […]

[3] = system: NPM1 T199 phosphorylation; assay: Western blot of NPM1 T199 phosphorylation in PANC-1 cells; format: cell-based; settings: 2 h
Description: We further investigated changes in NPM1 phosphorylation in our dataset. Of the NPM1 phosphorylation sites quantified, four sites had significant dose-dependent decreases upon 51-106 treatment: S137, T199, S222, and S227. Only one of these phosphorylation sites, T199, has a commercially available antibody. Importantly, T199 phosphorylation plays an essential role in NPM1 function, as it is required for localization of NPM1 to sites of DNA double-stranded breaks, where it colocalizes with other DNA repair proteins such as γH2AX and RAD51 [38].
Cells were washed with cold 1× PBS and lysed in Radioimmunoprecipitation assay (RIPA) buffer (Cat# 89901; Thermo Fisher Scientific), sodium orthovanadate (Na3VO4) (Cat# 567540-5GM; Sigma-Aldrich; St. Louis, MO, USA), sodium fluoride (NaF) (Cat# 201154-5G, >99% purity; Sigma-Aldrich), β-glycerophosphate (Cat# G9422-10G; Sigma-Aldrich), and 1 mM phenylmethylsulfonyl fluoride (Cat# 10837091001; Sigma Aldrich). The samples were incubated on ice for 30 min, vortexed at 10 min intervals, and centrifuged at 14,000× g for 10 min at 4 °C. The supernatant was collected, and protein was quantified using the BCA Protein Assay kit (Cat# 23225; Thermo Fisher Scientific). […]

Cn1cc(-c2cnc3ccc(NC(=O)Nc4ccc(F)c(C(F)(F)F)c4)cc3n2)cn1 [51-106, 1-(4-Fluoro-3-(trifluoromethyl)phenyl)-3-(3-(1-methyl-1H-pyrazol-4-yl)quinoxalin-6-yl)urea]
improvement in t½ in human liver microsomes ([1]; 51-106 versus analog 84): ~ 3.7 fold | T1/2 (half-life) in human liver microsomes ([1]; Species Human): ~ 50 h | Hepatic Extraction Ratio (E) ([1]; Species Human, human liver microsomes): 0.03 | half-life ([1]; both sexes, human, liver microsomes, Species Human, read-out: T1/2 (half-life) in human liver microsomes (converted)): 50.2 h | TNF-α–induced NF-κB transcription (luciferase reporter) [2]: dose-dependent inhibition | NPM1 T199 phosphorylation (Western blot) [3]: Decreased phosphorylation in NPM1 T199

Reference: paper PMC12073402, “A Selective MAP3K1 Inhibitor Facilitates Discovery of NPM1 as a Member of the Network” (Molecules, 2025)
